Measurements taken from patent US20080125467A1, “Amino-Containing Compounds Which Inhibit Memapsin 2 Beta-Secretase Activity and Methods of Use Thereof” (priority 2004, published 2008).

The compounds below were run against T1, memapsin 2 (Cricetulus griseus, UniProt G3IAK4) (assay: Cellular Aβ IC50 determination (Aβ40 sandwich ELISA)). Settings: Chinese hamster ovary cells over-expressing human APP695 with London and Swedish mutations, 24 h.
T1 construct: endogenous in cells; host or cells: Chinese hamster ovary cells over-expressing human APP695 (London + Swedish)
T1 sequence (G3IAK4 22-501): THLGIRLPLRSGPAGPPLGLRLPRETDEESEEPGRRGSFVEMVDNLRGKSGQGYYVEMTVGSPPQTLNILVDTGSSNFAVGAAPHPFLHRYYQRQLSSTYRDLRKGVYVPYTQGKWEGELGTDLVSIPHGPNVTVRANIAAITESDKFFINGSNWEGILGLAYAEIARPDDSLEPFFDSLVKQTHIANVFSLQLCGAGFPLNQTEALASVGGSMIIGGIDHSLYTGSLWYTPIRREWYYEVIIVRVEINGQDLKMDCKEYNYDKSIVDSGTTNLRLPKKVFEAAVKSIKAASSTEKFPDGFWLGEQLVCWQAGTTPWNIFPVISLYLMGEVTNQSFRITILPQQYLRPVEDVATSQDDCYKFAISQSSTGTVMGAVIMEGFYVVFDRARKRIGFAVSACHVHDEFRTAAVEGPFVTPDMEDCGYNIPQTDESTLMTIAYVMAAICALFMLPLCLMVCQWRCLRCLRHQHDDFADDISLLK
Type: cell-based
Experimental: The potency of compounds against memapsin 2 activity was determined in a cellular assay of Aβ production. […] Chinese hamster ovary cells that over-express human APP695 with the London and Swedish mutations were seeded in multi-well plates at 10% confluency. Compounds were dissolved in DMSO to concentrations near 1 mM, and diluted into culture media to a final concentration near 4 μM (final 0.4% DMSO). Compounds were diluted serially and applied to cells in multi-well plates 48 h after seeding. Incubation was continued in 5% CO2 at 37 degrees C. for 24 h. Aliquots were removed and assayed for Aβ40 content using a sandwich ELISA (BioSource International). Amount of Aβ40 over the range of concentration of compounds, relative to control incubations, were fit to a 4-parameter IC50 model.

| SMILES | IC50 [µM] |
| --- | --- |
| Cc1csc(CC(C)C(=O)NC(CNC(=O)OC2CCOC2)C(=O)NC(CC(C)C)C(O)CC(C)C(=O)NC(C(=O)NCC(C)C)C(C)C)n1 (stereo not drawn) [tetrahydrofuran-3-yl 3-(5-hydroxy-8-(1-(isobutylamino)-3-methyl-1-oxobutan-2-ylamino)-2,7-dimethyl-8-oxooctan-4-ylamino)-2-(2-methyl-3-(4-methylthiazol-2-yl)propanamido)-3-oxopropylcarbamate] | < 6 |
| Cc1csc(CC(C)C(=O)NC(CNC(=O)OC(C)(C)C)C(=O)NC(CC(C)C)C(O)CC(C)C(=O)NC(C(=O)NCc2ccncc2)C(C)C)n1 (stereo not drawn) [tert-butyl 3-(5-hydroxy-2,7-dimethyl-8-(3-methyl-1-oxo-1-(pyridin-4-ylmethylamino)butan-2-ylamino)-8-oxooctan-4-ylamino)-2-(2-methyl-3-(4-methylthiazol-2-yl)propanamido)-3-oxopropylcarbamate] | < 6 |
| Cc1cc(C)n(CC(C)C(=O)NC(CNC(=O)OC2CCOC2)C(=O)NC(CC(C)C)C(O)CC(C)C(=O)NC(C(=O)NCC(C)C)C(C)C)n1 (stereo not drawn) [tetrahydrofuran-3-yl 2-(3-(3,5-dimethyl-1H-pyrazol-1-yl)-2-methylpropanamido)-3-(5-hydroxy-8-(1-(isobutylamino)-3-methyl-1-oxobutan-2-ylamino)-2,7-dimethyl-8-oxooctan-4-ylamino)-3-oxopropylcarbamate] | 6 to 100 |
| CCC(Cn1nc(C)cc1C)C(=O)NC(CNC(=O)OC(C)(C)C)C(=O)NC(CC(C)C)C(O)CC(C)C(=O)NC(C(=O)NCc1ccncc1)C(C)C (stereo not drawn) [tert-butyl 2-(2-((3,5-dimethyl-1H-pyrazol-1-yl)methyl)butanamido)-3-(5-hydroxy-2,7-dimethyl-8-(3-methyl-1-oxo-1-(pyridin-4-ylmethylamino)butan-2-ylamino)-8-oxooctan-4-ylamino)-3-oxopropylcarbamate] | < 6 |
| CCC(Cc1nc(C)cs1)C(=O)NC(CN(C)OC)C(=O)NC(CC(C)C)C(O)CC(C)C(=O)NC(C(=O)NCC(C)C)C(C)C (stereo not drawn) [4-hydroxy-N-(1-(isobutylamino)-3-methyl-1-oxobutan-2-yl)-5-(3-(methoxy(methyl)amino)-2-(2-((4-methylthiazol-2-yl)methyl)butanamido)propanamido)-2,7-dimethyloctanamide] | > 100 |
| CCC(Cn1nc(C)cc1C)C(=O)NC(CNC(=O)OCCF)C(=O)NC(CC(C)C)C(O)CC(C)C(=O)NC(C(=O)NCC(C)C)C(C)C (stereo not drawn) [2-fluoroethyl 2-(2-((3,5-dimethyl-1H-pyrazol-1-yl)methyl)butanamido)-3-(5-hydroxy-8-(1-(isobutylamino)-3-methyl-1-oxobutan-2-ylamino)-2,7-dimethyl-8-oxooctan-4-ylamino)-3-oxopropylcarbamate] | 6 to 100 |
| CCC(Cn1nc(C)cc1C)C(=O)NC(CNC(=O)OC(C)(C)C)C(=O)NC(CC(C)C)C(O)CC(C)C(=O)NC(C(=O)NCc1ccccn1)C(C)C (stereo not drawn) [tert-butyl 2-(2-((3,5-dimethyl-1H-pyrazol-1-yl)methyl)butanamido)-3-(5-hydroxy-2,7-dimethyl-8-(3-methyl-1-oxo-1-(pyridin-2-ylmethylamino)butan-2-ylamino)-8-oxooctan-4-ylamino)-3-oxopropylcarbamate] | 6 to 100 |

Continued, values first:

| IC50 [µM] | SMILES |
| --- | --- |
| > 100 | Cc1csc(COC(=O)N[C@@H](CNC(=O)OC(C)(C)C)C(=O)N[C@@H](CC(C)C)[C@@H](O)C[C@@H](C)C(=O)N[C@H](C(=O)NCC(C)C)C(C)C)n1 |
| < 6 | Cc1csc(CC(C)C(=O)NC(CNC(=O)OC(C)(C)C)C(=O)NC(CC(C)C)C(O)CC(C)C(=O)NC(C(=O)NN(C)C)C(C)C)n1 (stereo not drawn) [tert-butyl 3-(8-(1-(2,2-dimethylhydrazinyl)-3-methyl-1-oxobutan-2-ylamino)-5-hydroxy-2,7-dimethyl-8-oxooctan-4-ylamino)-2-(2-methyl-3-(4-methylthiazol-2-yl)propanamido)-3-oxopropylcarbamate] |
| < 6 | COCCOC(=O)NCC(NC(=O)C(C)Cc1nc(C)cs1)C(=O)NC(CC(C)C)C(O)CC(C)C(=O)NC(C(=O)NCC(C)C)C(C)C (stereo not drawn) [2-methoxyethyl 3-(5-hydroxy-8-(1-(isobutylamino)-3-methyl-1-oxobutan-2-ylamino)-2,7-dimethyl-8-oxooctan-4-ylamino)-2-(2-methyl-3-(4-methylthiazol-2-yl)propanamido)-3-oxopropylcarbamate] |
| 6 to 100 | CC(=O)NCC(NC(=O)C(C)Cc1nc(C)cs1)C(=O)NC(CC(C)C)C(O)CC(C)C(=O)NC(C(=O)NCC(C)C)C(C)C (stereo not drawn) [5-(3-acetamido-2-(2-methyl-3-(4-methylthiazol-2-yl)propanamido)propanamido)-4-hydroxy-N-(1-(isobutylamino)-3-methyl-1-oxobutan-2-yl)-2,7-dimethyloctanamide] |
| < 6 | Cc1csc(CC(C)C(=O)NC(CNC(=O)OC(C)(C)C)C(=O)NC(CC(C)C)C(O)CC(C)C(=O)NC(C(=O)NCC(C)C)C(C)C)n1 (stereo not drawn) [tert-butyl 3-(5-hydroxy-8-(1-(isobutylamino)-3-methyl-1-oxobutan-2-ylamino)-2,7-dimethyl-8-oxooctan-4-ylamino)-2-(2-methyl-3-(4-methylthiazol-2-yl)propanamido)-3-oxopropylcarbamate] |
| > 100 | Cc1cc(C)n(CC(N)C(=O)NC(CNC(=O)OC(C)(C)C)C(=O)NC(CC(C)C)C(O)CC(C)C(=O)NC(C(=O)NCC(C)C)C(C)C)n1 (stereo not drawn) [tert-butyl 2-(2-amino-3-(3,5-dimethyl-1H-pyrazol-1-yl)propanamido)-3-(5-hydroxy-8-(1-(isobutylamino)-3-methyl-1-oxobutan-2-ylamino)-2,7-dimethyl-8-oxooctan-4-ylamino)-3-oxopropylcarbamate] |
| 6 to 100 | Cc1csc(COC(=O)N[C@@H](CNC(=O)O[C@H]2CCOC2)C(=O)N[C@@H](CC(C)C)[C@@H](O)C[C@@H](C)C(=O)N[C@H](C(=O)NCC(C)C)C(C)C)n1 |
| < 6 | CCC(CC(O)C(CC(C)C)NC(=O)C(CNC(=O)OC(C)(C)C)NC(=O)C(C)Cc1nc(C)cs1)C(=O)NC(C(=O)NCC(C)C)C(C)C (stereo not drawn) [tert-butyl 3-(5-hydroxy-7-(1-(isobutylamino)-3-methyl-1-oxobutan-2-ylcarbamoyl)-2-methylnonan-4-ylamino)-2-(2-methyl-3-(4-methylthiazol-2-yl)propanamido)-3-oxopropylcarbamate] |
| < 6 | COC(=O)NCC(NC(=O)C(C)Cc1nc(C)cs1)C(=O)NC(CC(C)C)C(O)CC(C)C(=O)NC(C(=O)NCC(C)C)C(C)C (stereo not drawn) [methyl 3-(5-hydroxy-8-(1-(isobutylamino)-3-methyl-1-oxobutan-2-ylamino)-2,7-dimethyl-8-oxooctan-4-ylamino)-2-(2-methyl-3-(4-methylthiazol-2-yl)propanamido)-3-oxopropylcarbamate] |
| < 6 | COC(=O)NC[C@H](NC(=O)OCc1nc(C)cs1)C(=O)N[C@@H](CC(C)C)[C@@H](O)C[C@@H](C)C(=O)N[C@H](C(=O)NCC(C)C)C(C)C |
| < 6 | Cc1nc(CC(C)C(=O)NC(CNC(=O)OC(C)(C)C)C(=O)NC(CC(C)C)C(O)CC(C)C(=O)NC(C(=O)NCC(C)C)C(C)C)c(C)o1 (stereo not drawn) [tert-butyl 2-(3-(2,5-dimethyloxazol-4-yl)-2-methylpropanamido)-3-(5-hydroxy-8-(1-(isobutylamino)-3-methyl-1-oxobutan-2-ylamino)-2,7-dimethyl-8-oxooctan-4-ylamino)-3-oxopropylcarbamate] |
